# Measurements taken from patent US11477982B2, “2-amino-5-oxyalkyl-pyrimidine derivatives and their use for controlling undesired plant growth” (Bayer CropScience Aktiengesellschaft, priority 2017, dated 2022).
# Columns and labels:
# Format in all cases: in vivo
# CYPES = test: Pre-emergence herbicidal effect
# Procedure, shortened: (§1)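 Compounds applied before emergence onto soil over sown seeds (WP or EC, 0.5% additive, 600 l/ha water); greenhouse culture about 3 weeks, then percent activity judged by eye against untreated plants.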
# [1] = system: AMARE: Amaranthus retroflexus; test: Pre-emergence herbicidal effect; conditions: pre-emergence
# Procedure, shortened: as §1
# [2] = system: MATIN: Matricaria inodora; test: Pre-emergence herbicidal effect; conditions: pre-emergence; dosage 320 g/ha
# Procedure, shortened: as §1
# [3] = system: POLCO: Polygonum convolvulus; test: Pre-emergence herbicidal effect
# Procedure, shortened: as §1
# VERPE: Veronica persica [4] = test: Pre-emergence herbicidal effect; conditions: dosage 320 g/ha
# Procedure, shortened: as §1
# VIOTR: Viola tricolor [5] = test: Pre-emergence herbicidal effect; conditions: dosage 320 g/ha
# Procedure, shortened: as §1
# [6] = system: ABUTH: Abutilon theophrasti; test: Post-emergence herbicidal effect
# Procedure, shortened: (§2)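 Visual rating, made about 3 weeks after treatment against untreated plants, runs from 0% (like controls) to 100% (plants dead). WP or EC formulations were applied post-emergence as aqueous spray at 600 l/ha with 0.5% additive. Plants were at the one-leaf stage, 2 to 3 weeks after sowing in sandy loam.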
# [7] = system: AMARE: Amaranthus retroflexus; test: Post-emergence herbicidal effect
# Procedure, shortened: as §2
# AVEFA: Avena fatua [8] = test: Post-emergence herbicidal effect
# Procedure, shortened: as §2
# [9] = system: ECHCG: Echinochloa crus-galli; test: Post-emergence herbicidal effect
# Procedure, shortened: as §2
# PHBPU: Ipomoea purpurea [10] = test: Post-emergence herbicidal effect
# Procedure, shortened: as §2
# [11] = system: POLCO: Polygonum convolvulus; test: Post-emergence herbicidal effect
# Procedure, shortened: as §2
# SETVI: Setaria viridis [12] = test: Post-emergence herbicidal effect
# Procedure, shortened: as §2
# STEME: Stellaria media [13] = test: Post-emergence herbicidal effect
# Procedure, shortened: as §2
# VERPE: Veronica persica [14] = test: Post-emergence herbicidal effect; conditions: dosage 320 g/ha
# Procedure, shortened: as §2
# VIOTR: Viola tricolor [15] = test: Post-emergence herbicidal effect
# Procedure, shortened: as §2
# [16] = system: ABUTH: Abutilon theophrasti; test: Pre-emergence herbicidal effect
# Procedure, shortened: as §1
# [17] = system: ALOMY: Alopecurus myosuroides; test: Pre-emergence herbicidal effect; conditions: pre-emergence
# Procedure, shortened: as §1
# AVEFA: Avena fatua [18] = test: Pre-emergence herbicidal effect
# Procedure, shortened: as §1
# [19] = system: ECHCG: Echinochloa crus-galli; test: Pre-emergence herbicidal effect; conditions: pre-emergence
# Procedure, shortened: as §1
# HORMU: Hordeum murinum = test: Pre-emergence herbicidal effect; conditions: pre-emergence
# Procedure, shortened: as §1
# LOLRI: Lolium rigidum [20] = test: Pre-emergence herbicidal effect
# Procedure, shortened: as §1
# PHBPU: Ipomoea purpurea [21] = test: Pre-emergence herbicidal effect
# Procedure, shortened: as §1
# SETVI: Setaria viridis [22] = test: Pre-emergence herbicidal effect; conditions: pre-emergence
# Procedure, shortened: as §1
# STEME: Stellaria media [23] = test: Pre-emergence herbicidal effect; conditions: pre-emergence; dosage 320 g/ha
# Procedure, shortened: as §1
# [24] = system: ALOMY: Alopecurus myosuroides; test: Post-emergence herbicidal effect
# Procedure, shortened: as §2
# [25] = system: MATIN: Matricaria inodora; test: Post-emergence herbicidal effect
# Procedure, shortened: as §2
# LOLRI: Lolium rigidum [26] = test: Post-emergence herbicidal effect
# Procedure, shortened: as §2
smiles,measurement,setting,value
"Cc1ccc2c(c1)[C@H](Nc1ncc(C(C)(C)O)c(N)n1)[C@@H](C)C2 [drawing 3, reference compound]",Herbicidal action against CYPES,CYPES; dosage 80 g/ha,60%
same,Herbicidal action against CYPES,CYPES; dosage 320 g/ha,70%
Cc1ccc2c(c1)[C@H](Nc1ncc(C(C)O)cn1)[C@@H](C)C2 (stereo partly shown) [Example 1.2],Herbicidal action against AMARE,[1]; dosage 320 g/ha,100%
same,Herbicidal action against MATIN,[2],100%
same,Herbicidal action against POLCO,[3]; dosage 320 g/ha,100%
same,Herbicidal action against VERPE,VERPE: Veronica persica [4],100%
same,Herbicidal action against VIOTR,VIOTR: Viola tricolor [5],100%
same,Herbicidal action against ABUTH,[6]; dosage 320 g/ha,80%
same,Herbicidal action against AMARE,[7]; dosage 80 g/ha,100%
same,Herbicidal action against AMARE,[7]; dosage 320 g/ha,100%
same,Herbicidal action against AVEFA,AVEFA: Avena fatua [8]; dosage 80 g/ha,60%
same,Herbicidal action against AVEFA,AVEFA: Avena fatua [8]; dosage 320 g/ha,80%
same,Herbicidal action against ECHCG,[9]; dosage 80 g/ha,40%
same,Herbicidal action against ECHCG,[9]; dosage 320 g/ha,100%
same,Herbicidal action against PHBPU,PHBPU: Ipomoea purpurea [10]; dosage 80 g/ha,40%
same,Herbicidal action against POLCO,[11]; dosage 80 g/ha,90%
same,Herbicidal action against POLCO,[11]; dosage 320 g/ha,90%
same,Herbicidal action against SETVI,SETVI: Setaria viridis [12]; dosage 80 g/ha,90%
same,Herbicidal action against SETVI,SETVI: Setaria viridis [12]; dosage 320 g/ha,90%
same,Herbicidal action against STEME,STEME: Stellaria media [13]; dosage 80 g/ha,90%
same,Herbicidal action against STEME,STEME: Stellaria media [13]; dosage 320 g/ha,100%
same,Herbicidal action against VERPE,VERPE: Veronica persica [14],90%
same,Herbicidal action against VIOTR,VIOTR: Viola tricolor [15]; dosage 320 g/ha,80%
"CC(C)(O)c1cnc(N[C@@H]2CCCc3ccccc32)nc1 [Example 1.8, 2-{2-[(1R)-1,2,3,4-Tetrahydronaphthalen-1-ylamino]pyrimidin-5-yl}propan-2-ol]",Herbicidal action against ABUTH,[16]; dosage 320 g/ha,100%
same,Herbicidal action against ALOMY,[17]; dosage 320 g/ha,100%
same,Herbicidal action against AMARE,[1]; dosage 320 g/ha,100%
same,Herbicidal action against AVEFA,AVEFA: Avena fatua [18]; dosage 320 g/ha,100%
same,Herbicidal action against CYPES,CYPES; dosage 320 g/ha,70%
same,Herbicidal action against ECHCG,[19]; dosage 320 g/ha,100%
same,Herbicidal action against HORMU,HORMU: Hordeum murinum; dosage 320 g/ha,100%
same,Herbicidal action against LOLRI,LOLRI: Lolium rigidum [20]; dosage 320 g/ha,100%
same,Herbicidal action against MATIN,[2],100%
same,Herbicidal action against PHBPU,PHBPU: Ipomoea purpurea [21]; dosage 320 g/ha,100%
same,Herbicidal action against POLCO,[3]; dosage 320 g/ha,100%
same,Herbicidal action against SETVI,SETVI: Setaria viridis [22]; dosage 320 g/ha,100%
same,Herbicidal action against STEME,STEME: Stellaria media [23],100%
same,Herbicidal action against VERPE,VERPE: Veronica persica [4],100%
same,Herbicidal action against VIOTR,VIOTR: Viola tricolor [5],100%
same,Herbicidal action against ABUTH,[6]; dosage 320 g/ha,90%
same,Herbicidal action against ALOMY,[24]; dosage 320 g/ha,70%
same,Herbicidal action against AMARE,[7]; dosage 320 g/ha,100%
same,Herbicidal action against AVEFA,AVEFA: Avena fatua [8]; dosage 320 g/ha,100%
same,Herbicidal action against ECHCG,[9]; dosage 320 g/ha,100%
same,Herbicidal action against MATIN,[25]; dosage 320 g/ha,100%
same,Herbicidal action against PHBPU,PHBPU: Ipomoea purpurea [10]; dosage 320 g/ha,80%
same,Herbicidal action against POLCO,[11]; dosage 320 g/ha,90%
same,Herbicidal action against SETVI,SETVI: Setaria viridis [12]; dosage 320 g/ha,100%
same,Herbicidal action against STEME,STEME: Stellaria media [13]; dosage 320 g/ha,100%
same,Herbicidal action against VERPE,VERPE: Veronica persica [14],90%
same,Herbicidal action against VIOTR,VIOTR: Viola tricolor [15]; dosage 320 g/ha,90%
"Cc1ccc2c(c1)[C@H](Nc1ncc(C(C)(C)O)c(N)n1)[C@@H](C)C2 [drawing 12, reference compound]",Herbicidal action against MATIN,[25]; dosage 80 g/ha,0%
same,Herbicidal action against MATIN,[25]; dosage 320 g/ha,60%
same,Herbicidal action against PHBPU,PHBPU: Ipomoea purpurea [10]; dosage 320 g/ha,50%
same,Herbicidal action against POLCO,[11]; dosage 80 g/ha,0%
same,Herbicidal action against POLCO,[11]; dosage 320 g/ha,0%
same,Herbicidal action against STEME,STEME: Stellaria media [13]; dosage 80 g/ha,0%
same,Herbicidal action against STEME,STEME: Stellaria media [13]; dosage 320 g/ha,0%
same,Herbicidal action against VIOTR,VIOTR: Viola tricolor [15]; dosage 80 g/ha,60%
Cc1ccc2c(c1)[C@H](Nc1ncc(C(C)(C)O)c(C)n1)[C@@H](C)C2 [Example 1.6],Herbicidal action against ABUTH,[16]; dosage 80 g/ha,90%
same,Herbicidal action against ABUTH,[16]; dosage 320 g/ha,100%
same,Herbicidal action against ALOMY,[17]; dosage 80 g/ha,100%
same,Herbicidal action against ALOMY,[17]; dosage 320 g/ha,100%
same,Herbicidal action against AMARE,[1]; dosage 80 g/ha,100%
same,Herbicidal action against AMARE,[1]; dosage 320 g/ha,100%
same,Herbicidal action against AVEFA,AVEFA: Avena fatua [18]; dosage 80 g/ha,80%
same,Herbicidal action against AVEFA,AVEFA: Avena fatua [18]; dosage 320 g/ha,100%
same,Herbicidal action against ECHCG,[19]; dosage 80 g/ha,100%
same,Herbicidal action against ECHCG,[19]; dosage 320 g/ha,100%
same,Herbicidal action against HORMU,HORMU: Hordeum murinum; dosage 80 g/ha,100%
same,Herbicidal action against HORMU,HORMU: Hordeum murinum; dosage 320 g/ha,100%
same,Herbicidal action against LOLRI,LOLRI: Lolium rigidum [20]; dosage 80 g/ha,100%
same,Herbicidal action against LOLRI,LOLRI: Lolium rigidum [20]; dosage 320 g/ha,100%
same,Herbicidal action against MATIN,[2],100%
same,Herbicidal action against PHBPU,PHBPU: Ipomoea purpurea [21]; dosage 80 g/ha,80%
same,Herbicidal action against PHBPU,PHBPU: Ipomoea purpurea [21]; dosage 320 g/ha,100%
same,Herbicidal action against POLCO,[3]; dosage 80 g/ha,100%
same,Herbicidal action against POLCO,[3]; dosage 320 g/ha,100%
same,Herbicidal action against SETVI,SETVI: Setaria viridis [22]; dosage 80 g/ha,100%
same,Herbicidal action against SETVI,SETVI: Setaria viridis [22]; dosage 320 g/ha,100%
same,Herbicidal action against STEME,STEME: Stellaria media [23],100%
same,Herbicidal action against VERPE,VERPE: Veronica persica [4],100%
same,Herbicidal action against VIOTR,VIOTR: Viola tricolor [5],100%
same,Herbicidal action against ABUTH,[6]; dosage 80 g/ha,80%
same,Herbicidal action against ABUTH,[6]; dosage 320 g/ha,90%
same,Herbicidal action against ALOMY,[24]; dosage 80 g/ha,90%
same,Herbicidal action against ALOMY,[24]; dosage 320 g/ha,100%
same,Herbicidal action against AMARE,[7]; dosage 80 g/ha,100%
same,Herbicidal action against AMARE,[7]; dosage 320 g/ha,100%
same,Herbicidal action against AVEFA,AVEFA: Avena fatua [8]; dosage 320 g/ha,100%
same,Herbicidal action against ECHCG,[9]; dosage 80 g/ha,100%
same,Herbicidal action against ECHCG,[9]; dosage 320 g/ha,100%
same,Herbicidal action against LOLRI,LOLRI: Lolium rigidum [26]; dosage 80 g/ha,40%
same,Herbicidal action against LOLRI,LOLRI: Lolium rigidum [26]; dosage 320 g/ha,100%
same,Herbicidal action against MATIN,[25]; dosage 80 g/ha,20%
same,Herbicidal action against PHBPU,PHBPU: Ipomoea purpurea [10]; dosage 320 g/ha,100%
same,Herbicidal action against POLCO,[11]; dosage 320 g/ha,80%
same,Herbicidal action against SETVI,SETVI: Setaria viridis [12]; dosage 80 g/ha,90%
same,Herbicidal action against SETVI,SETVI: Setaria viridis [12]; dosage 320 g/ha,100%
same,Herbicidal action against STEME,STEME: Stellaria media [13]; dosage 80 g/ha,100%
same,Herbicidal action against STEME,STEME: Stellaria media [13]; dosage 320 g/ha,100%
same,Herbicidal action against VERPE,VERPE: Veronica persica [14],80%
same,Herbicidal action against VIOTR,VIOTR: Viola tricolor [15]; dosage 80 g/ha,90%
same,Herbicidal action against VIOTR,VIOTR: Viola tricolor [15]; dosage 320 g/ha,90%
"Cc1ccc2c(c1)[C@H](Nc1ncc(C(C)(C)O)c(N)n1)[C@@H](C)C2 [drawing 13, reference compound]",Herbicidal action against MATIN,[25]; dosage 80 g/ha,0%
same,Herbicidal action against PHBPU,PHBPU: Ipomoea purpurea [10]; dosage 320 g/ha,50%
same,Herbicidal action against POLCO,[11]; dosage 320 g/ha,0%
same,Herbicidal action against STEME,STEME: Stellaria media [13]; dosage 80 g/ha,0%
same,Herbicidal action against STEME,STEME: Stellaria media [13]; dosage 320 g/ha,0%
same,Herbicidal action against VIOTR,VIOTR: Viola tricolor [15]; dosage 80 g/ha,60%
